The source of these data is PubChem BioAssay (NCI).

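Step 1: Grow cells in 96-well plates. Step 2: Expose to compound for 48 hours at 5 concentrations. Step 3: Interpolate endpoints linearly; if unreached, use highest concentration. TGI denotes the concentration required for complete inhibition of growth.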 Where a SMILES comes first, the peptide text is derived from it. The star is where a group is joined. OBn = c1ccc(CO*)cc1 Some results are limits rather than exact numbers.

Among the test systems are RXF 393 renal; UO-31 renal; RPMI-8226 leukemia; T-47D breast; LOX IMVI melanoma; NCI-H226 lung; HCT-15 colon; NCI-H522 lung; SF-295 CNS; SK-MEL-2 melanoma; SN12C renal; SK-OV-3 ovarian; HL-60(TB) leukemia; U251 CNS; SK-MEL-5 melanoma; MOLT-4 leukemia; K-562 leukemia; NCI/ADR-RES ovarian; CCRF-CEM leukemia.
Common to all, as to assay: inhibition of tumour cell growth, NCI panel, 48 h

For the compound `CC(Oc1ccc(Cl)cc1Cl)C(=O)NN1C(=O)CSC1c1ccc(Cl)cc1` (stereo not given), the TGI in the assay on RXF 393 renal is 83.4 µM; with UO-31 renal, more than 100 µM; in the assay with RPMI-8226 leukemia, more than 100 µM; in the assay on T-47D breast it was more than 100 µM; in the assay with LOX IMVI melanoma, more than 100 µM; in the assay on NCI-H226 lung it was 39.2 µM. The TGI is more than 100 µM in the assay with HCT-15 colon; more than 100 µM in the assay on NCI-H522 lung; more than 100 µM with SF-295 CNS; more than 100 µM in the assay with SK-MEL-2 melanoma; 37.8 µM in the assay with SN12C renal; more than 100 µM with SK-OV-3 ovarian. Also, the TGI in the assay on HL-60(TB) leukemia is 84.7 µM; in the assay on U251 CNS, more than 100 µM; in the assay with SK-MEL-5 melanoma, more than 100 µM; in the assay on MOLT-4 leukemia, 80.1 µM; with K-562 leukemia, more than 100 µM; in the assay on NCI/ADR-RES ovarian, more than 100 µM.

As to `O=C(O)CCSc1nnc(COc2ccc(Cl)cc2)n1-c1ccccc1`, the TGI in the assay on RXF 393 renal, with UO-31 renal, with T-47D breast, in the assay on LOX IMVI melanoma, with NCI-H226 lung and with HCT-15 colon was more than 100 µM in each case. The TGI with CCRF-CEM leukemia, with NCI-H522 lung, in the assay with SF-295 CNS, with SK-MEL-2 melanoma, in the assay on SN12C renal and with SK-OV-3 ovarian was more than 100 µM each time. Moreover, the TGI in the assay on HL-60(TB) leukemia, in the assay with U251 CNS, in the assay with MOLT-4 leukemia, in the assay on K-562 leukemia and with NCI/ADR-RES ovarian was more than 100 µM in each case.

As for `NC(CCC(=O)OCc1ccccc1)C(=O)NC(CCC(=O)OCc1ccccc1)C(=O)O` (stereo not given) (H-Glu(OBn)-Glu(OBn)-OH; configuration not given here), the TGI in the assay on RXF 393 renal, in the assay on UO-31 renal, in the assay with RPMI-8226 leukemia, in the assay on T-47D breast, in the assay with LOX IMVI melanoma and in the assay with NCI-H226 lung was more than 100 µM each time. Besides, the TGI in the assay with HCT-15 colon, in the assay on CCRF-CEM leukemia, in the assay with NCI-H522 lung, in the assay with SF-295 CNS, in the assay with SN12C renal and in the assay with SK-OV-3 ovarian was more than 100 µM throughout. Moreover, the TGI in the assay on HL-60(TB) leukemia, in the assay with U251 CNS, in the assay on SK-MEL-5 melanoma, in the assay with MOLT-4 leukemia, with K-562 leukemia and in the assay with NCI/ADR-RES ovarian was more than 100 µM throughout.

In the case of `COc1ccccc1CNCc1nc2ccccc2[nH]1`, the TGI in the assay on RXF 393 renal, in the assay with UO-31 renal, with RPMI-8226 leukemia, in the assay with T-47D breast, with LOX IMVI melanoma and in the assay with NCI-H226 lung was more than 100 µM each time. Further, the TGI with HCT-15 colon, in the assay on CCRF-CEM leukemia, in the assay with NCI-H522 lung, with SF-295 CNS, with SK-MEL-2 melanoma and in the assay with SN12C renal was more than 100 µM in each case. In addition, the TGI in the assay on HL-60(TB) leukemia, in the assay with U251 CNS, with SK-MEL-5 melanoma, in the assay with MOLT-4 leukemia, in the assay on K-562 leukemia and in the assay on NCI/ADR-RES ovarian was more than 100 µM in each case.

On to `CC(C)(CCCCC(C)(C)NCC1COc2ccccc2O1)NCC1COc2ccccc2O1` (stereo not given), for which the TGI is 8.83 µM in the assay with RXF 393 renal; more than 10 µM with RPMI-8226 leukemia; more than 10 µM in the assay with T-47D breast; more than 10 µM in the assay on LOX IMVI melanoma; more than 10 µM in the assay with NCI-H226 lung; more than 10 µM in the assay on HCT-15 colon. Besides, the TGI is more than 10 µM in the assay on CCRF-CEM leukemia; more than 10 µM in the assay on NCI-H522 lung; more than 10 µM in the assay with SF-295 CNS; 6.68 µM with SK-MEL-2 melanoma; more than 10 µM with SN12C renal; more than 10 µM in the assay on SK-OV-3 ovarian. Besides, the TGI with HL-60(TB) leukemia is more than 10 µM; in the assay with U251 CNS it was more than 10 µM; with SK-MEL-5 melanoma it was 2.95 µM; with MOLT-4 leukemia, more than 10 µM; in the assay on K-562 leukemia it was more than 10 µM; with NCI/ADR-RES ovarian, more than 10 µM.

Take `CC(CCC(=O)O)[C@H]1CCC2[C@H]3C(CC(=O)[C@@]21C)[C@@]1(C)CCC(O)C[C@H]1C[C@@H]3O` (stereo not given in full): the TGI in the assay with RXF 393 renal, in the assay on UO-31 renal, with RPMI-8226 leukemia, in the assay with T-47D breast, in the assay with LOX IMVI melanoma and in the assay with NCI-H226 lung was more than 100 µM in each case. Moreover, the TGI in the assay with HCT-15 colon, in the assay on CCRF-CEM leukemia, with NCI-H522 lung, with SK-MEL-2 melanoma, with SN12C renal and in the assay with HL-60(TB) leukemia was more than 100 µM in each case. Besides, the TGI in the assay with U251 CNS, with MOLT-4 leukemia, in the assay with K-562 leukemia and in the assay on NCI/ADR-RES ovarian was more than 100 µM in each case.

As to `CCO/C(O)=C(/C(=N)N1CCCC1)C(=O)Nc1ccc(Cl)cc1`, the TGI with RXF 393 renal, in the assay with RPMI-8226 leukemia, in the assay on T-47D breast, in the assay on LOX IMVI melanoma, in the assay on NCI-H226 lung and in the assay on HCT-15 colon was more than 100 µM throughout. The TGI in the assay on CCRF-CEM leukemia, in the assay on NCI-H522 lung, with SF-295 CNS, with SK-MEL-2 melanoma, with SN12C renal and in the assay on SK-OV-3 ovarian was more than 100 µM each time. In addition, the TGI in the assay with HL-60(TB) leukemia, in the assay with U251 CNS, in the assay with MOLT-4 leukemia, in the assay on K-562 leukemia and in the assay with NCI/ADR-RES ovarian was more than 100 µM in each case.

Consider `O=C1NC(Cc2c[nH]c3ccccc23)C(=O)N2C(c3ccccc3)c3[nH]c4ccccc4c3C[C@@H]12` (stereo not given in full), for which the TGI with RXF 393 renal is 34.3 µM; in the assay with UO-31 renal, 67.3 µM; in the assay on RPMI-8226 leukemia, 50.8 µM; with T-47D breast it was more than 100 µM; in the assay with LOX IMVI melanoma it was 40.6 µM; in the assay on NCI-H226 lung it was 88.9 µM. Besides, the TGI was 54.3 µM in the assay on HCT-15 colon; 45.5 µM with NCI-H522 lung; 33.1 µM with SF-295 CNS; 46.5 µM in the assay with SK-MEL-2 melanoma; 33.3 µM in the assay on SN12C renal; more than 100 µM in the assay on SK-OV-3 ovarian. The TGI in the assay with HL-60(TB) leukemia is 50.8 µM; with U251 CNS, 39.2 µM; in the assay with SK-MEL-5 melanoma, 32.7 µM; with MOLT-4 leukemia, 42.2 µM; with K-562 leukemia it was 55.1 µM; with NCI/ADR-RES ovarian, 58.3 µM.
